Test results published in US20020142944A1, “Treatment of ocular disorders” (Erasmus Universiteit Rotterdam, priority 1999, published 2002).

How the values were obtained:
[1] = test system: bilateral cystoid macular edema; assay: Treatment of cystoid macular edema, single patient; assay type: in vivo, human; details: for effect on the edema or visual acuity: previous therapy before octreotide, eye drops / peribulbar injections
Protocol: One year later, they noticed blurred vision. Their visual acuity was 20/50 in the right eye and 20/40 in the left eye (by Snellen chart). […] Their visual acuity slowly deteriorated in the subsequent years. […] They had no family history of macular edema. […] The injections were stopped four weeks later, because there was no further improvement.
Treatment with 100 μg or octreotide subcutaneously once daily was resumed. […] […] stopped treatment a second time; after four weeks […] visual acuity was 20/70 in the right eye and 20/50 in the left eye. Octreotide therapy was resumed, and four weeks later […] visual acuity was 20/40 in each eye.

[2] = test system: refractory CME due to chronic uveitis; assay: Octreotide treatment of 10 patients with refractory CME due to chronic uveitis, three months; assay type: in vivo, human
Protocol: Patients were treated in accordance to the declaration of Helsinki. In this study, 10 consecutive patients from the Department of Ophthalmology, Erasmus University Medical Center, and the Eye Hospital Rotterdam, were selected because of refractory CME due to chronic uveitis. Since CME in uveitis can be influenced in time by multiple factors, only patients suffering from macular edema for more than 6 months were included, regardless of their immune suppressive treatment. Six patients had bilateral CME and four patients unilateral. Three patients with pars planitis needed no treatment for their inflammation but still had marked CME. Fluorescein angiography was performed within one week before starting octreotide treatment. Octreotide therapy was given after informed consent had been obtained. Dosage was started with 100 μg subcutaneously, on the first day, two times 100 μg on the second day and three times 100 μg from the third day onwards. When possible, the long-acting repeatable (LAR) formulation was prescribed in a dosage of 20 mg per 4 weeks intramuscularly, which became available during the studies. The dose of patient 3, a child, was adjusted for their age to 10 mg per month (im). Immune suppressive treatment was adjusted as based on inflammatory activity. Visual acuity was measured after 2, 4, and 12 weeks of treatment. Fluorescein angiography was repeated after three months of treatment.

[3] = after eight weeks of 100 μg subcutaneously three times daily, before treatment 20/100 in each eye
[4] = four weeks after second stop of treatment
[5] = three months after resuming 100 μg subcutaneously once daily
[6] = within two weeks after first stop of injections
[7] = after three months of treatment
[8] = three months therapy, 10 patients

SMILES: CC(=O)Nc1nnc(S(N)(=O)=O)s1 [acetazolamide]
- effect on the edema or visual acuity [1]: without beneficial effect

SMILES: C[C@H]1C[C@H]2[C@@H]3CCC4=CC(=O)C=C[C@]4(C)[C@@]3(F)[C@@H](O)C[C@]2(C)[C@@]1(O)C(=O)CO [betamehtasone, betamethasone]
- effect on the edema or visual acuity [1]: without beneficial effect

SMILES: O=C(O)Cc1ccccc1Nc1c(Cl)cccc1Cl [diclofenac]
- effect on the edema or visual acuity [1]: without beneficial effect

SMILES: CCOC(=O)[C@H](CCc1ccccc1)N[C@@H](C)C(=O)N1CCC[C@H]1C(=O)O [enalapril]
- effect on the edema or visual acuity [1]: without beneficial effect

SMILES: C[C@@H](O)[C@@H]1NC(=O)[C@H](CCCCN)NC(=O)[C@@H](Cc2c[nH]c3ccccc23)NC(=O)[C@H](Cc2ccccc2)NC(=O)[C@@H](NC(=O)[C@H](N)Cc2ccccc2)CSSC[C@@H](C(=O)N[C@H](CO)[C@@H](C)O)NC1=O [octreotide]
- ophthalmoscopic finding, cystoid lesions ([1]; after eight weeks of 100 μg subcutaneously three times daily): the cysts had dried
- visual acuity in the left eye (Snellen chart) [1, 3]: 20/50
- visual acuity in the right eye (Snellen chart) [1, 3]: 20/40
- visual change noted by the patient ([1]; after six weeks of 100 μg subcutaneously three times daily): visual improvement
- visual acuity in each eye ([1]; four weeks after second resumption of therapy): 20/40
- visual acuity in the left eye after stopping treatment [1, 4]: 20/50
- visual acuity in the right eye after stopping treatment [1, 4]: 20/70
- fluorescein angiography finding [1, 5]: some foveal fluorascein leakage
- visual acuity in each eye [1, 5]: 20/40
- side effects from the treatment ([1]; whole course of treatment): no side effects
- ophthalmoscopic finding after stopping treatment [1, 6]: some fluid was observed
- visual acuity in each eye after stopping treatment [1, 6]: 10/50
- fluorescein angiographic macular edema clearly diminished [2, 7]: 3 eyes
- fluorescein angiographic macular edema diminished but still visible [2, 7]: 9 eyes
- fluorescein angiographic macular edema unaltered [2, 7]: 3 eyes
- ocular hypertension ([2]; at week 4, 10 patients): one
- diarrhoea (only side effect observed) ([2]; during the first days of treatment, 10 patients): 4 patients
- patients in whom visual acuity or inflammation activity deteriorated [2, 8]: none
- patients with decreased inflammation, leading to tapered immunosuppressive therapy [2, 8]: Four
- CME dissolved by stereoscopic examination ([2]; three months therapy, 10 patients, six bilateral and four unilateral CME): 5 eyes
- CME diminished by stereoscopic examination ([2]; three months therapy, further eyes beside those dissolved): 11 eyes
